The test system of one series is RSV Long strain. Put plainly: Viral Cytopathic Effect (CPE) Assay. In kind it is cell-based. The note with it: human respiratory syncytial virus, 144 h, cell viability after 6 days, Cell Counting kit-8. A general note: Protection from cytopathic effect is a common read-out in antiviral testing.
Series [1] can be described thus: single dose PK in male ICR mouse (IV and PO). In kind it is in vivo. Particulars: male ICR mice; for AUC(0-t) / half-life: mouse, plasma. How it is done:
The single dose PK in male ICR mouse was performed to assess their pharmacokinetic properties. Two groups of animals were dosed via either bolus intravenous (IV) or oral gavage (PO) of the respective compound. The animals for oral administration were fasted overnight prior to dosing and food was resumed 4 hours postdose. Blood samples (approximately 400 μL) were collected via cardiac puncture after euthanasia by carbon dioxide inhalation at 2 min, 5 min, 15 min, 30 min, 1 h, 2 h, 4 h, 6 h, 8 h, and 24 h postdose for IV group, and at 5 min, 15 min, 30 min, 1 h, 2 h, 4 h, 6 h, 8 h, and 24 h postdose for PO group. Blood samples were placed into tubes containing sodium heparin and centrifuged at 8000 rpm for 6 minutes at 4° C. to separate plasma from the samples. Following centrifugation, the resulting plasma was transferred to clean tubes for bioanalysis on LC/MS/MS. The pharmacokinetic parameters were calculated using non-compartmental module of WinNonlin® Professional 5.2.

In the next series the test system is RSV infection. The note with it: intramuscularly at 15 mg/kg once a month for the duration of RSV season; selected infants; cited from earlier work.
The test system of the next series is RSV. The note with it: Phase III clinical trials; cited from earlier work.

For the molecule `CS(=O)(=O)c1nn(Cc2nc3cc(Cl)ccc3n2CC2COC2)c2cnccc12` [Example 2-22, 1-{[5-Chloro-1-(oxetan-3-ylmethyl)-1H-benzimidazol-2-yl]methyl}-3-(methylsulfonyl)-1H-pyrazolo[3,4-c]pyridine], in the series with RSV Long strain, the EC50 (commonly the concentration at which the effect is half-maximal) turned out to be 6 nM. Moreover, in series [1] (IV (1 mg/Kg)), the CLz is 16.9 mL/min/kg; the AUC(0-t) (as a rule, exposure summed from dosing to a finite time, without extrapolation to infinity) worked out at 976 ng·h/mL; the half-life (usually the time in which the quantity being followed falls by half) is 1.55 h. In series [1] (PO (12.2 mg/kg)), this molecule gave an F of 23.8%, an AUC(0-t) of 2430 ng·h/mL and a half-life of 2.45 h. `CS(=O)(=O)c1nn(Cc2nc3cc(Cl)ccc3n2CCC(F)(F)F)c2cnccc12` [Example 2-21, 1-{[5-Chloro-1-(3,3,3-trifluoropropyl)-1H-benzimidazol-2-yl]methyl}-3-(methylsulfonyl)-1H-pyrazolo[3,4-c]pyridine] had an EC50 with RSV Long strain of 19.1 nM. Also, in series [1] (IV (1.65 mg/Kg)), the CLz was 10.6 mL/min/kg, the area under the curve AUC(0-t) was 2590 ng·h/mL and the half-life is 2.82 h. Besides, in series [1] (PO (8.27 mg/kg)), the F is 37.1%, the exposure AUC(0-t) came to 4800 ng·h/mL and the half-life is 3.16 h.

For the molecule “palivizumab: a humanized monoclonal antibody against RSV fusion (F) protein approved for prophylaxis in high-risk infants”, the “reduction of hospitalization rate caused by RSV infection” value in the series with RSV infection was 45-55%. Consider `CS(=O)(=O)c1nn(Cc2nc3cc(Cl)ccc3n2CCCC(F)(F)F)c2cnccc12` [Example 4-3, 1-{[5-Chloro-1-(4,4,4-trifluorobutyl)-1H-benzimidazol-2-yl]methyl}-3-(methylsulfonyl)-1H-pyrazolo[3,4-c]pyridine], for which the EC50 with RSV Long strain is 5 nM. In series [1] (IV (2 mg/kg)), the CLz turned out to be 43.4 mL/min/kg, the AUC(0-t) came to 760 ng·h/mL and the half-life is 1.26 h. Besides, in series [1] (PO (6 mg/kg)), the F stood at 46.0%, the AUC(0-t) was 1050 ng·h/mL and the half-life is 0.831 h. In the case of “motavizumab: A newer version monoclonal antibody, designed as potential replacement of palivizumab”, the benefit over palivizumab entry with RSV was “failed to show additional benefit over palivizumab”.

Molecule `CC1(CCn2c(Cn3nc(S(C)(=O)=O)c4ccncc43)nc3cc(Cl)ccc32)COC1` [Example 2-25, 1-({5-Chloro-1-[2-(3-methyloxetan-3-yl)ethyl]-1H-benzimidazol-2-yl}methyl)-3-(methylsulfonyl)-1H-pyrazolo[3,4-c]pyridine] had an EC50 in the series with RSV Long strain of 6.79 nM. `CS(=O)(=O)c1nn(Cc2nc3cc(Cl)ccc3n2C2CCNC2)c2cnccc12` (stereo not drawn) [Example 2-13, 1-{[5-Chloro-1-(pyrrolidin-3-yl)-1H-benzimidazol-2-yl]methyl}-3-(methylsulfonyl)-1H-pyrazolo[3,4-c]pyridine] showed an EC50 in the series on RSV Long strain of 44.2 nM. Regarding `CS(=O)(=O)c1nn(Cc2nc3cc(Cl)ccc3n2[C@H]2CCN(CC(F)(F)F)C2)c2cnccc12` [Example 2-19, 1-({5-Chloro-1-[(3S)-1-(2,2,2-trifluoroethyl)pyrrolidin-3-yl]-1H-benzimidazol-2-yl}methyl)-3-(methylsulfonyl)-1H-pyrazolo[3,4-c]pyridine], it took 1170 nM to reach a half-maximal effect in the series on RSV Long strain (EC50). In the case of `CS(=O)(=O)c1nn(Cc2nc3cc(Cl)ccc3n2[C@H]2C[C@H](CO)C2)c2cnccc12` [Example 11, [trans-3-(5-chloro-2-{[3-(methylsulfonyl)-1H-pyrazolo[3,4-c]pyridin-1-yl]methyl}-1H-benzimidazol-1-yl)cyclobutyl]methanol], the response with RSV Long strain was half-maximal at 3 nM (EC50). In the case of `CC(=O)N1CCC(n2c(Cn3nc(S(C)(=O)=O)c4ccncc43)nc3cc(Cl)ccc32)C1` (stereo not drawn) [Example 2-16, 1-[3-(5-Chloro-2-{[3-(methylsulfonyl)-1H-pyrazolo[3,4-c]pyridin-1-yl]methyl}-1H-benzimidazol-1-yl)pyrrolidin-1-yl]ethanone], the EC50 in the series on RSV Long strain was determined as 16.4 nM. On the same count and under the same terms, with `CS(=O)(=O)CCCn1c(Cn2nc(S(C)(=O)=O)c3ccccc32)nc2cc(Cl)ccc21` [Example 1-8, 1-({5-Chloro-1-[3-(methylsulfonyl)propyl]-1H-benzimidazol-2-yl}methyl)-3-(methylsulfonyl)-1H-indazole] the figure was 16 nM; with `CS(=O)(=O)CCn1c(Cn2nc(S(C)(=O)=O)c3ccncc32)cc2cc(Cl)ccc21` [Example 9-1, 1-({5-Chloro-1-[2-(methylsulfonyl)ethyl]-1H-indol-2-yl}methyl)-3-(methylsulfonyl)-1H-pyrazolo[3,4-c]pyridine], 3.71 nM. On the same count and under the same terms, with `CS(=O)(=O)c1nn(Cc2nc3cc(Cl)ccc3n2CCOCCO)c2cnccc12` [Example 2-35, 2-[2-(5-chloro-2-{[3-(methylsulfonyl)-1H-pyrazolo[3,4-c]pyridin-1-yl]methyl}-1H-benzimidazol-1-yl)ethoxy]ethanol] the figure was 15 nM; with `CC(C)S(=O)(=O)c1cn(Cc2nc3cc(Cl)ccc3n2CCCS(C)(=O)=O)c2ccccc12` [Example 1-6, 5-Chloro-1-[3-(methylsulfonyl)propyl]-2-{[3-(propan-2-ylsulfonyl)-1H-indol-1-yl]methyl}-1H-benzimidazole], 119 nM; with `CS(=O)(=O)c1nn(Cc2nc3cc(Cl)ccc3n2CCC2COC2)c2cnccc12` [Example 2-23, 1-({5-Chloro-1-[2-(oxetan-3-yl)ethyl]-1H-benzimidazol-2-yl}methyl)-3-(methylsulfonyl)-1H-pyrazolo[3,4-c]pyridine], 6 nM.

In the case of `CS(=O)(=O)c1nn(Cc2nc3cc(Cl)ccc3n2C2CNC3(COC3)C2)c2cnccc12` (stereo not drawn) [Example 8, 1-{[5-Chloro-1-(2-oxa-5-azaspiro[3.4]oct-7-yl)-1H-benzimidazol-2-yl]methyl}-3-(methanesulfonyl)-1H-pyrazolo[3,4-c]pyridine], in the series with RSV Long strain, a half-maximal response (EC50) required 19.4 nM. Same read-out and setting: in the case of `CS(=O)(=O)CCCn1c(Cn2cc(S(C)(=O)=O)c3ccccc32)nc2cc(Cl)ccc21` [Example 1-2, 5-Chloro-2-{[3-(methylsulfonyl)-1H-indol-1-yl]methyl}-1-[3-(methylsulfonyl)propyl]-1H-benzimidazole] it was 62.5 nM; in that of `CCS(=O)(=O)c1nn(Cc2nc3cc(Cl)ccc3n2CCCS(C)(=O)=O)c2ccccc12` [Example 1-10, 1-({5-Chloro-1-[3-(methylsulfonyl)propyl]-1H-benzimidazol-2-yl}methyl)-3-(ethylsulfonyl)-1H-indazole], 37.8 nM. Take `CS(=O)(=O)CCCn1c(Cn2nc(S(C)(=O)=O)c3ccncc32)cc2cc(Cl)ccc21` [Example 9-2, 1-({5-Chloro-1-[3-(methylsulfonyl)propyl]-1H-indol-2-yl}methyl)-3-(methylsulfonyl)-1H-pyrazolo[3,4-c]pyridine]: the midpoint of the response with RSV Long strain, the EC50, lay at 8.12 nM. On to `C[C@H](c1nc2cc(Cl)ccc2n1CCC(F)(F)F)n1nc(S(C)(=O)=O)c2ccncc21` [Example 15-1, 1-{(1R)-1-[5-chloro-1-(3,3,3-trifluoropropyl)-1H-benzimidazol-2-yl]ethyl}-3-(methylsulfonyl)-1H-pyrazolo[3,4-c]pyridine], for which the midpoint of the response in the series with RSV Long strain, the EC50, lay at 227 nM. For `CS(=O)(=O)CCn1c(Cn2nc(S(C)(=O)=O)c3ccncc32)cc2cc(Cl)cc(F)c21` [Example 9-3, 1-({5-Chloro-7-fluoro-1-[2-(methylsulfonyl)ethyl]-1H-indol-2-yl}methyl)-3-(methylsulfonyl)-1H-pyrazolo[3,4-c]pyridine], the EC50 in the series on RSV Long strain amounted to 7.21 nM. For `CS(=O)(=O)c1nn(Cc2nc3cc(Cl)ccc3n2[C@@H]2CCN(CCO)C2)c2cnccc12` [Example 6-7, 2-[(3R)-3-(5-Chloro-2-{[3-(methylsulfonyl)-1H-pyrazolo[3,4-c]pyridin-1-yl]methyl}-1H-benzimidazol-1-yl)pyrrolidin-1-yl]ethanol], it took 3.68 nM to reach a half-maximal effect in the series on RSV Long strain (EC50).

`CS(=O)(=O)c1nn(Cc2nc3cc(Cl)ccc3n2C2CCNC(=O)C2)c2cnccc12` (stereo not drawn) [Example 2-4, 4-(5-Chloro-2-{[3-(methylsulfonyl)-1H-pyrazolo[3,4-c]pyridin-1-yl]methyl}-1H-benzimidazol-1-yl)piperidin-2-one]: it took 7.35 nM to reach a half-maximal effect in the series on RSV Long strain (EC50).

`CS(=O)(=O)c1nn(Cc2nc3cc(Cl)ccc3n2C2CCC(F)(F)C2)c2ccccc12` (stereo not drawn) [Example 2-9, 1-{[5-Chloro-1-(3,3-difluorocyclopentyl)-1H-benzimidazol-2-yl]methyl}-3-(methylsulfonyl)-1H-indazole] returned an EC50 in the series on RSV Long strain of 6.97 nM.

(Values after patent publication US9206191B2, “Indazoles for the treatment and prophylaxis of respiratory syncytial virus infection” (Hoffmann-La Roche Inc., priority 2012, dated 2015).)
